This experiment deals with T1, Mad2^∆β7/β8 (Homo sapiens, UniProt Q13257).
T1 construct: a Mad2 variant with a deleted β7/β8 hairpin (Mad2^∆β7/β8: residues 1–165); His6-DoubleStrep-TEV (N); made in house
As to the kind of experiment: NMR titration (CSP) of Cdc20^MIM-123-152 into Mad2^∆β7/β8. Type of experiment: binding. The note with it: 25°C. As to the method: FIGURE 3 Mad2 conversion rates with different Cdc20^MIM peptides. (a) Schematic of human Cdc20. Box1: Box1 motif; C1: C‐box motif; K1: KEN box motif; MIM: Mad2‐interacting motif, residues 123–137; WD40: WD40 domain, residues 182–480; IR: IR tail. (b) Mad2 conversion in the presence of different Cdc20^MIM peptides. Mad2 conversion was traced at 25°C and the changes in the first 30 min are shown. A black tick indicates where conversion is considered complete. NMR data for O‐Mad2^R133A with Cdc20^MIM‐111‐138 shown for comparison are from Fischer et al. ([2022]). (c) The Cdc20^MIM‐138‐152‐binding site was identified by comparing the spectra of C‐Mad2:Cdc20^MIM‐123‐137 with C‐Mad2:Cdc20^MIM‐123‐152 (boxed in b) and analyzing their CSPs (Figure S8e,f). The Cdc20^MIM‐138‐152‐binding site (blue) is mapped onto the structure of C‐Mad2:Cdc20 from the cryo‐EM structure of the APC/C:MCC complex (PDB 6TLJ) (Alfieri et al., [2016], Alfieri et al., [2020]). The O‐Mad2 structural model is superimposed onto the C‐Mad2 structure for comparison. Cdc20 residues 138–152 are in yellow and residues 126–138 are in green. The β7/β8 hairpin in O‐Mad2 (red) blocks both the binding sites for Cdc20 residues 126–138 and residues 138–152. (d) As in c except the β7/β8 hairpin in O‐Mad2 is removed to expose the Cdc20 binding sites. […] (f) Cdc20^MIM‐123‐152 was titrated into Mad2^∆β7/β8 and its binding was analyzed by NMR. […]

Residues, ends and D or L forms follow the SMILES beside them. A value given as a limit tells only on which side of the number the result lay.

For orientation: Kd means a measure of binding affinity in units of concentration. As to `CC[C@H](C)[C@H](NC(=O)[C@H](CCCCN)NC(=O)[C@H](C)NC(=O)[C@H](CCC(=O)O)NC(=O)[C@H](CCC(=O)O)NC(=O)[C@@H](NC(=O)[C@H](CC(=O)O)NC(=O)[C@@H](N)Cc1ccccc1)C(C)C)C(=O)N[C@@H](CC(C)C)C(=O)N[C@@H](CCCNC(=N)N)C(=O)N[C@@H](CC(C)C)C(=O)N[C@@H](CO)C(=O)NCC(=O)N[C@@H](CCCCN)C(=O)N1CCC[C@H]1C(=O)N[C@@H](CCC(N)=O)C(=O)N[C@@H](CC(N)=O)C(=O)N[C@@H](C)C(=O)N1CCC[C@H]1C(=O)N[C@@H](CCC(=O)O)C(=O)NCC(=O)N[C@@H](Cc1ccc(O)cc1)C(=O)N[C@@H](CCC(N)=O)C(=O)N[C@@H](CC(N)=O)C(=O)N[C@@H](CCCNC(=N)N)C(=O)N[C@@H](CC(C)C)C(=O)N[C@@H](CCCCN)C(=O)N[C@H](C(=O)N[C@@H](CC(C)C)C(=O)N[C@@H](Cc1ccc(O)cc1)C(=O)O)C(C)C` [Cdc20^MIM‐123‐152] (H-FDVEEAKILRLSGKPQNAPEGYQNRLKVLY-OH; N-terminus and C-terminus assumed), the “interaction with Mad2^∆β7/β8, in words” value (NMR CSPs on addition of peptide) is reported as “weak interaction”. The Kd (NMR titration, fit of resonance with largest CSP vs ligand concentration, 20 mM HEPES pH 7.0, 100 mM NaCl, 1 mM TCEP, 5% D2O, read-out: KD (estimated)) was > 700 µM.

Values taken from PMC11947619, “Molecular mechanism of Mad2 conformational conversion promoted by the Mad2‐interaction motif of Cdc20” (Protein Science : A Publication of the Protein Society, 2025).
